Reference: patent US20200209181A1, “ELECTROCHEMICAL METHOD AND DEVICE FOR DETECTING THE EFFECT OF ANTICANCER DRUGS” (Nano Hesgarsazan Salamat Arya, priority 2016, published 2020)

Experiments:
Assay type in all cases: cell-based, human
MCF-7 cells [1] = assay: Cyclic voltammetry (CV) response of MCF-7 cells attached on SiNW-based biosensor after drug treatment
Description: For CV characterization, three-electrode electrochemical cyclic voltammetry may be performed using the electrochemical workstation. Instead of the system electrodes, the SiNW-based biosensor including integrated SiNW electrodes may be used that is designed and fabricated pursuant to the teachings of the present disclosure. CV assay may be performed between the integrated SiNW covered working electrode 103 and counter electrode 104, with an on chip reference electrode 105 (represented in FIGS. 1 and 5A). The reference electrode may be initially calibrated by an Ag/AgCl reference electrode in a solution of about 1 mM ferrocene carboxylic acid with about 1 mM potassium chloride. CV studies may be performed using DC voltage and applying no AC frequency. For CV data recording, measurements may be carried out at about −0.8 V to 0.8 V at a scan rate of about 100 mv/s. In this example, the effect of Mebendazole (MBZ), which is an antitubulin drug that induces tubulin depolymerization in cancer cells, may be investigated via an exemplary electrochemical method of the present disclosure. The MCF-7 cells attached on SiNWs of an exemplary biosensor of the present disclosure may be treated with different doses of MBZ and the electrochemical response of an individual non-treated (hereinafter “CTRL”) cell and treated cells may be monitored. […]

MCF-7 cells [2] = assay: Differential pulse voltammetry (DPV) response of MCF-7 cells attached on SiNW-based biosensor after drug treatment; details: for Absolute DPV current peak: about 2 nano-mole per liter MBZ; for Absolute DPV: about 10.5 nano-mole per liter MBZ
Description: For DPV measurement, a derivative of linear sweep voltammetry, with a series of regular voltage pulses superimposed on the potential linear sweep. The current may be sampled twice, just before the pulse application and again, late in the pulse lifetime. The current may be measured immediately before each potential change, then the current difference may be plotted as a function of potential. By sampling the current just before the potential was changed, the effect of the charging current may be decreased. In this example, the effect of Mebendazole (MBZ), which is an antitubulin drug that induces tubulin depolymerization in cancer cells, may be investigated via an exemplary electrochemical method of the present disclosure. The MCF-7 cells attached on SiNWs of an exemplary biosensor of the present disclosure may be treated with different doses of MBZ and the electrochemical response of an individual non-treated (hereinafter “CTRL”) cell and treated cells may be monitored. Accordingly, exemplary MCF-7 cell lines isolated from grade I human breast tumors may be used as cancer cells. The MCF-7 cells may be maintained in a CO2 incubator containing about 5% CO2 and at a temperature of about 37° C. in a RPMI-1640 medium supplemented with a 5% fetal bovine serum, and 1% penicillin/streptomycin. The fresh medium may be replaced every other day. Prior to each experiment, cells may be trypsinized to be detached from the substrate and re-suspended on the SiNW electrodes of an exemplary biosensor of the present disclosure. To minimize the effect of trypsinization, the procedure may be done in less than about 4 minutes at a room temperature of about 20° C. to about 22° C. The biosensor including the attached cells may be held in an incubator for about 4 hours to achieve cells attachment on the SiNWs. Then the MBZ drug with a low concentration (about 2 nano-mole per liter) and with a high concentration (about 10.5 nano-mole per liter) may be added to the cells. […]

MCF-7 cells [3] = assay: Cell cycle progression of drug treated MCF-7 cells by flowcytometry analysis
Protocol: Accordingly, exemplary MCF-7 cell lines isolated from grade I human breast tumors may be used as cancer cells. The MCF-7 cells may be maintained in a CO2 incubator containing about 5% CO2 and at a temperature of about 37° C. in a RPMI-1640 medium supplemented with a 5% fetal bovine serum, and 1% penicillin/streptomycin. The fresh medium may be replaced every other day. Prior to each experiment, cells may be trypsinized to be detached from the substrate and re-suspended on the SiNW electrodes of an exemplary biosensor of the present disclosure. To minimize the effect of trypsinization, the procedure may be done in less than about 4 minutes at a room temperature of about 20° C. to about 22° C. The biosensor including the attached cells may be held in an incubator for about 4 hours to achieve cells attachment on the SiNWs. Then the MBZ drug with a low concentration (about 2 nano-mole per liter) and with a high concentration (about 10.5 nano-mole per liter) may be added to the cells. The signal recording and biological assays may be investigated at about 2, 6 and 10 hours after addition of the drug. In addition, cell cycle progression for CTRL and drug treated MCF-7 cells may be determined by flowcytometry analysis that are shown in FIG. 9A (for CTRL cells), FIG. 9B (for treated cells with about 2 nano-mole per liter of MBZ) and FIG. 9C (for treated cells with about 10.5 nano-mole per liter of MBZ). The cell's fractions in apoptotic (part 901), G0/G1 (part 902), S (part 903) and G2/M (part 904) cycles are observable in all of panels. Also, the state of counted cells for each of these three situations is represented at the Right side of the figures. […] But, proportion of G0/G1 fraction (part 902) was changed in MBZ incubated samples. The peak of G0/G1 was about 1300 in CTRL sample (FIG. 9A) meanwhile it was reduced to about 800 in MBZ (about 2 nano-mole per liter) treated cells (FIG. 9B). The result can be confirmed by side scatter versus forward scatter (SSC-FSC) diagram as a strong sign of cells granularity (represented at Right side of FIGS. 9A, 9B and 9C). […] By increasing the dose of MBZ to about 10.5 nM (FIG. 9C), apoptotic behavior (part 901) of the cells was affected. […] Such disorders in the cycle of the cells after MBZ treatment would be well demanded by affected anodic/cathodic response of the cells measured by SiNWs electrodes.

[4] = about 2 nano-mole per liter MBZ

COC(=O)Nc1nc2ccc(C(=O)c3ccccc3)cc2[nH]1 [MBZ, Mebendazole]
anodic and cathodic spikes in CV diagrams (MCF-7 cells [1]; MBZ about 2 and about 10.5 nano-mole per liter, 2 hours after drug incubation, MCF-7 on SiNW electrodes): Both anodic and cathodic spikes may be observed
height of the CV spikes (MCF-7 cells [1]; MBZ dose increased to about 10.5 nano-mole per liter, versus about 2 nano-mole per liter): increased by nearly three orders
Absolute DPV current peak (MCF-7 cells [2]; 2 hours after treatment (CTRL about 5 nA)): about 300 nA
Absolute DPV current peak (MCF-7 cells [2]; about 12 hours after treatment): about 900 nA
Absolute DPV (MCF-7 cells [2]; 12 hours): about 2000 nA
Absolute DPV (MCF-7 cells [2]; after 2 hours): about 1400
amount of the cells in G0/G1 phase (MCF-7 cells [3]; about 10.5 nM MBZ, similar time): sharper reduction
G2/M fraction relative to CTRL (MCF-7 cells [3]; [4]): less than half
apoptotic behavior of MCF-7 cells (MCF-7 cells [3]; [4]): did not induce the apoptotic behavior
peak of G0/G1 (MCF-7 cells [3]; about 2 nano-mole per liter MBZ (CTRL about 1300)): about 800
apoptotic cells with hypodiploid DNA (subG1 fraction) (MCF-7 cells [3]; about 2 nano-mole per liter MBZ, compared with CTRL sample): slightly increased
